Results published in US20250108119A1, “NOVEL STEROID PAYLOADS, STEROID LINKERS, ADCs CONTAINING AND USE THEREOF” (IMMUNEXT, INC., priority 2021, published 2025).
Read-outs that look alike come from different tables or passages of the source.

Key:
[1] = tested on: LPS stimulated human PBMCs; assay: LPS stimulated human PBMC, IL-1β and IL-6 ELISA; format: cell-based; conditions: for inhibition of IL-1β production: Experiment 8: free payload 1000-0.5 nM
Summary of the method: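 Human PBMC (1-2 healthy donors), 150,000 cells/well, treated with test agents at 1,000 nM down to 1 nM or 0.2 nM, in duplicate. LPS at 1 ng/ml added immediately after free payload or 4 h after conjugates; IL-1β and IL-6 in supernatants measured by ELISA.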

FKBP5 = FKBP5 transcription in peritoneal resident macrophages (PRM) and spleen cells after in vivo treatment; parameters: species or system hVISTA mice; conditions: linker payloads as anti-VISTA conjugates; for FKBP5 induction in splenic cells (conclusions): day 1, 7, 14
[2] = tested on: peritoneal resident macrophages (PRM); assay: In vivo treatment/ex vivo PRM activation, TNFα and IL-6 in supernatant; parameters: species or system hVISTA mice; conditions: for potency in PRM cytokine model when dosed 7 days early (conclusions) / controlling cytokine response in PRM when dosed 14 days early (conclusions): linker/payloads as anti-VISTA conjugates; for preventing ex vivo induction of TNFα and IL-6 in PRM: Experiment 9: linker payloads as conjugates, 7 days post 0.2 mg/Kg of GC payload, supernatant 24h
Method: Based thereon we developed a model to allow us to evaluate long-term anti-inflammatory impact of ADC on specific target populations, such as PRMs. […] In the absence of GC treatment, after 2h PRMs become highly activated as shown by increases in cytokine production. […] The objective of these studies was to evaluate the efficacy and pharmacodynamic range of INX human VISTA antibodies conjugated to a glucocorticoid payload as compared to free Dex.
After euthanasia, mice were injected in the peritoneal cavity with 7 ml of PBS/0.5% BSA/2 mM EDTA. After a brief massage of the peritoneum, a small incision was performed and the peritoneal lavage collected. PRM were isolated using negative selection (Miltenyi kit, ref 130-110-434). Spleen were dissected and dissociated mechanically; monocytes were isolated using […] (Stem Cell, EasySep™ Mouse CD11b Positive Selection Kit II).
PRMs were resuspended in RPMI 1640 with 10% FBS, 10 mM Hepes, Penicillin/Streptomycin and glutamine and 100,000 cells were plated per well in a 96-well tissue culture plate. Supernatants were collected at 2 and 24h post plating and stored at −80° C. […]
• BioLegend (cat #430904) ELISA MAX Deluxe Set Mouse TNF-α • BioLegend (cat #431304) ELISA MAX Deluxe Set Mouse IL-6
ELISAs were conducted following the manufacturer's included protocol.

human PBMC = assay: Cytokine production (IL-1β, IL-6) at 24 hr by human PBMC incubated with 1 ng/mL LPS; format: cell-based; conditions: free steroid payloads, serial dilutions, 1 ng/mL LPS, 24 hr
Summary of the method: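 Human PBMC were stimulated with 1 ng/mL LPS together with serial dilutions of steroid payloads or glucocorticoid conjugates, spanning up to 8,000 nM down to 0.032 nM depending on the series. IL-1β and IL-6 were measured at 24 hr from technical duplicates, with 1-2 donors. Values above the ULOQ were extrapolated.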

C[C@]12C=CC(=O)C=C1CC[C@@H]1[C@@H]2[C@@H](O)C[C@@]2(C)[C@H]1C[C@H]1O[C@@H](c3ccc(OC4CC5(CC(NC(=O)[C@H](CCC(=O)O)NC(=O)CNC(=O)CBr)C5)C4)cc3)O[C@]12C(=O)CO (stereo partly drawn) [INX A4, (S)-4-(2-(2-bromoacetamido)acetamido)-5-((6-(4-((6aR,6bS,7S,8aS,8bS,10R,11aR,12aS,12bS)-7-hydroxy-8b-(2-hydroxyacetyl)-6a,8a-dimethyl-4-oxo-2,4,6a,6b,7,8,8a,8b,11a,12,12a,12b-dodecahydro-1H-naphtho[2′,1′:4,5]indeno[1,2-d][1,3]dioxol-10-yl)phenoxy)spiro[3.3]heptan-2-yl)amino)-5-oxopentanoic acid]
potency of conjugated linker payloads over INX J (conclusions) [1]: enhanced potency | FKBP5 induction when dosed 14 days early (conclusions) (FKBP5): still display significant potency when dosed 14 days early in regard to FKBP5 induction | FKBP5 induction in splenic cells (conclusions) (FKBP5): only demonstrate significant induction at day 1, and 7

C[C@]12C=CC(=O)C=C1CC[C@@H]1[C@@H]2[C@@H](O)C[C@@]2(C)[C@H]1C[C@H]1O[C@@H](c3ccc(Cc4cccc(NC(=O)[C@H](CCC(=O)O)NC(=O)CNC(=O)CBr)c4)cc3)O[C@]12C(=O)CO [INX J, (S)-4-(2-(2-bromoacetamido)acetamido)-5-((3-(4-((6aR,6bS,7S,8aS,8bS,10R,11aR,12aS,12bS)-7-hydroxy-8b-(2-hydroxyacetyl)-6a,8a-dimethyl-4-oxo-2,4,6a,6b,7,8,8a,8b,11a,12,12a,12b-dodecahydro-1H-naphtho[2′,1′:4,5]indeno[1,2-d][1,3]dioxol-10-yl)benzyl)phenyl)amino)-5-oxopentanoic acid, reference compound]
potency in PRM cytokine model when dosed 7 days early (conclusions) [2]: show similar potency when dosed 7 days early

C[C@]12C=CC(=O)C=C1CC[C@@H]1[C@@H]2[C@@H](O)C[C@@]2(C)[C@H]1C[C@H]1O[C@@H](c3ccc(Cc4cccc(NC(=O)[C@H](CCC(=O)O)NC(=O)CNC(=O)CBr)c4)cc3)O[C@]12C(=O)COP(=O)(O)O [INX L]
controlling cytokine response in PRM when dosed 14 days early (conclusions) [2]: significant potency in controlling cytokine response in PRM when dosed 14 days early | FKBP5 induction in splenic cells (conclusions) (FKBP5): only demonstrate significant induction at day 1, and 7

C[C@]12C=CC(=O)C=C1CC[C@@H]1[C@@H]2[C@@H](O)C[C@@]2(C)[C@H]1C[C@H]1O[C@@H](C34CC(Cc5cccc(NC(=O)[C@H](CCC(=O)O)NC(=O)CNC(=O)CBr)c5)(C3)C4)O[C@]12C(=O)CO [INX O, (S)-4-(2-(2-bromoacetamido)acetamido)-5-((3-((3-((6aR,6bS,7S,8aS,8bS,10R,11aR,12aS,12bS)-7-hydroxy-8b-(2-hydroxyacetyl)-6a,8a-dimethyl-4-oxo-2,4,6a,6b,7,8,8a,8b,11a,12,12a,12b-dodecahydro-1H-naphtho[2′,1′:4,5]indeno[1,2-d][1,3]dioxol-10-yl)bicyclo[1.1.1]pentan-1-yl)methyl)phenyl)amino)-5-oxopentanoic acid]
preventing ex vivo induction of TNFα and IL-6 in PRM [2]: little and non-significant impact on the PRM cytokine response | potency in PRM cytokine model when dosed 7 days early (conclusions) [2]: very limited and non-significant potency when conjugated to INX201

C[C@H](NC(=O)CBr)C(=O)N[C@@H](C)C(=O)NC12CC(Cc3ccc([C@@H]4O[C@@H]5C[C@H]6[C@@H]7CCC8=CC(=O)C=C[C@]8(C)[C@H]7[C@@H](O)C[C@]6(C)[C@]5(C(=O)CO)O4)cc3)(C1)C2 [INX R, (S)-2-(2-bromoacetamido)-N—((S)-1-((3-(4-((6aR,6bS,7S,8aS,8bS,10R,11aR, 12aS,12bS)-7-hydroxy-8b-(2-hydroxyacetyl)-6a,8a-dimethyl-4-oxo-2,4,6a,6b,7,8,8a,8b,11a,12,12a,12b-dodecahydro-1H-naphtho[2′,1′:4,5]indeno[1,2-d][1,3]dioxol-10-yl)benzyl)bicyclo[1.1.1]pentan-1-yl)amino)-1-oxopropan-2-yl) propanamide]
potency in PRM cytokine model when dosed 7 days early (conclusions) [2]: show similar potency when dosed 7 days early

C[C@]12C=CC(=O)C=C1[C@@H](F)C[C@H]1[C@@H]3C[C@H]4O[C@@H](c5ccc(CC67CC(NC(=O)[C@H](CCC(=O)O)NC(=O)CNC(=O)CBr)(C6)C7)cc5)O[C@@]4(C(=O)CO)[C@@]3(C)C[C@H](O)[C@@]12F [INX S, (S)-4-(2-(2-bromoacetamido)acetamido)-5-((3-(4-((2S,6aS,6bR,7S,8aS,8bS, 10R,11aR,12aS,12bS)-2,6b-difluoro-7-hydroxy-8b-(2-hydroxyacetyl)-6a,8a-dimethyl-4-oxo-2,4,6a,6b,7,8,8a,8b,11a,12,12a,12b-dodecahydro-1H-naphtho[2′,1′:4,5]indeno[1,2-d][1,3]dioxol-10-yl)benzyl)bicyclo[1.1.1]pentan-1-yl)amino)-5-oxopentanoic acid]
preventing ex vivo induction of TNFα and IL-6 in PRM [2]: remarkable long-term potency in controlling cytokine responses | controlling cytokine response in PRM when dosed 14 days early (conclusions) [2]: significant potency in controlling cytokine response in PRM when dosed 14 days early | potency in PRM cytokine model when dosed 7 days early (conclusions) [2]: remarkably more potent than payloads INX P and INX R when dosed 7 days early | FKBP5 induction when dosed 14 days early (conclusions) (FKBP5): still display significant potency when dosed 14 days early in regard to FKBP5 induction | FKBP5 induction in splenic cells (conclusions) (FKBP5): Significant FKBP5 induction is seen at day 1, 7, and 14 in splenic cells

C[C@]12C=CC(=O)C=C1CC[C@@H]1[C@@H]2[C@@H](O)C[C@@]2(C)[C@H]1C[C@H]1O[C@@H](c3ccc(CC4CC(N)C45CCC5)cc3)O[C@]12C(=O)CO (stereo partly drawn) [INX-SM-45, (6aR,6bS,7S,8aS,8bS,10R,11aR,12aS,12bS)-10-(4-((3-aminospiro[3.3]heptan-1-yl)methyl)phenyl)-7-hydroxy-8b-(2-hydroxyacetyl)-6a,8a-dimethyl-1,2,6a,6b,7,8,8a,8b,11a,12,12a,12b-dodecahydro-4H-naphtho[2′,1′:4,5]indeno[1,2-d][1,3]dioxol-4-one 2,2,2-trifluoroacetate]
inhibition of IL-1β production [1]: more modest inhibition of cytokine production | inhibition of IL-1β production (human PBMC): more modest inhibition

C[C@]12C=CC(=O)C=C1CC[C@@H]1[C@@H]2[C@@H](O)C[C@@]2(C)[C@H]1C[C@H]1O[C@@H](c3ccc(CC4CC45CCC(N)CC5)cc3)O[C@]12C(=O)CO (stereo partly drawn) [INX-SM-46, (6aR,6bS,7S,8aS,8bS,10R,11aR,12aS,12bS)-10-(4-((6-aminospiro[2.5]octan-1-yl)methyl)phenyl)-7-hydroxy-8b-(2-hydroxyacetyl)-6a,8a-dimethyl-1,2,6a,6b,7,8,8a,8b,11a,12,12a,12b-dodecahydro-4H-naphtho[2′,1′:4,5]indeno[1,2-d][1,3]dioxol-4-one 2,2,2-trifluoroacetate]
inhibition of IL-1β production [1]: more modest inhibition of cytokine production | inhibition of IL-1β production (human PBMC): more modest inhibition

C[C@]12C=CC(=O)C=C1CC[C@@H]1[C@@H]2[C@@H](O)C[C@@]2(C)[C@H]1C[C@H]1O[C@@H](c3ccc(CC4CC5(CNC5)C4)cc3)O[C@]12C(=O)CO [INX-SM-47, (6aR,6bS,7S,8aS,8bS,10R,11aR,12aS,12bS)-10-(4-((2-azaspiro[3.3]heptan-6-yl)methyl)phenyl)-7-hydroxy-8b-(2-hydroxyacetyl)-6a,8a-dimethyl-1,2,6a,6b,7,8,8a,8b,11a,12,12a,12b-dodecahydro-4H-naphtho[2′,1′:4,5]indeno[1,2-d][1,3]dioxol-4-one 2,2,2-trifluoroacetate]
inhibition of IL-1β and IL-6 [1]: weakly inhibit IL-1β and IL-6 | inhibition of IL-1β production (human PBMC): weakly inhibit | inhibition of IL-6 production (human PBMC): weakly inhibit

CNC1CC(Cc2ccc([C@@H]3O[C@@H]4C[C@H]5[C@@H]6CCC7=CC(=O)C=C[C@]7(C)[C@H]6[C@@H](O)C[C@]5(C)[C@]4(C(=O)CO)O3)cc2)C1 (stereo partly drawn) [INX-SM-49, (6aR,6bS,7S,8aS,8bS,10R,11aR,12aS,12bS)-7-hydroxy-8b-(2-hydroxyacetyl)-6a,8a-dimethyl-10-(4-((3-(methylamino)cyclobutyl)methyl)phenyl)-1,2,6a,6b,7,8,8a,8b,11a,12,12a,12b-dodecahydro-4H-naphtho[2′,1′:4,5]indeno[1,2-d][1,3]dioxol-4-one]
inhibition of IL-1β and IL-6 ([1]; Experiment 12: free payloads 1000-0.15 nM): weakly inhibit IL-1β and IL-6 | inhibition of IL-1β production (human PBMC): weakly inhibit | inhibition of IL-6 production (human PBMC): weakly inhibit
